Experiments:
[1] = test system: Venturia inaequalis; assay: In Vitro Apple Scab Assay (ASC In Vitro); assay type: cell-based; details: germ tube length
Description: A) Pathogen/Inoculum Production--A suspension of Venturia inaequalis conidia, adjusted to 150,000 spores/ml, is prepared using freshly harvested or frozen conidia. Apple seedlings, cv. McIntosh, are sprayed with this suspension and incubated in a high humidity chamber set at 20° C. with a 12 hour photoperiod for approximately four weeks. At maximum disease expression, a fine mist of deionized water is used to wash conidia from sporulating lesions and the resulting liquid/spore suspension is collected into glass vials and frozen at -80° C. for future use.
B) Compound Preparation--Water agar with 1.5% agar m/v is autoclaved to sterilization. Stock solutions of each compound of the present invention are made by solubilizing them in an appropriate solvent at a convenient concentration. Serial dilutions in solvent are made from this stock to execute the various test rates. When the molten agar is cool enough to pour, the compounds in solvent are dispensed into the agar such that the final concentration ratio of agar to solvent is 100:1. The agar is gently agitated and poured into petri plates, one plate per treatment. The standard used is 3-(difluoromethyl)-N-2,3-dihydro-1,1,3-trimethyl-1H-inden-4-yl)-1-Methyl-1H-Pyrazole-4-carboxamide as found in U.S. Pat. No. 5,093,347.
C) Test Execution--Twenty-four hours after pouring, the plates are ready for inoculation. The previously collected frozen spore suspension is thawed at room temperature and diluted to a concentration of 1×10^4 spores/ml with sterile water. Three drops of approximately 0.1 ml each of the suspension are placed into each plate in an equidistant configuration. The plates are then placed in a dark incubator set at 20° C.
D) Test Evaluation--Forty to forty-eight hours later, the lengths of the spore germ tubes are measured using an ocular lens scale on a binocular microscope. Ten germ tubes in a drop are measured and an average determined for that drop. This procedure is repeated for the other two drops. The values for the three drops are then averaged to give the mean for the treatment. Percent inhibition of germination is calculated using the following equation: % Inhibition=(avg. control length--avg. treatment length/avg. control length) X 100.

[2] = test system: Erysiphe graminis f. sp. tritici; assay: Wheat Powdery Mildew Foliar Curative Treatment (WPM Cur); assay type: in vivo; details: 20 ppm foliar curative, inoculation 48 hours prior to application
Description: A) Pathogen/Inoculum Production follow as per Example 2. (B) Host Propagation, (C) Compound Preparation and (D) Compound Application follow as per Example 1.
E) Inoculation/Incubation--Inoculation is accomplished as per Example 1, 48 hours prior to compound application. The incubation period is temporarily interrupted for chemical treatment, the plants are allowed to dry and then returned to the incubation chamber.
(G) Evaluation and (H) Data follow as per Example 1. The percent protection values for the compounds of the present invention are as set out in the Table below.

[3] = test system: Septoria nodorum; assay: Wheat Glume Blotch Foliar Assay, curative (WGB Cur); assay type: in vivo; details: application two days post-inoculation, * = averaged value
Description: A) Host Propagation--Winter wheat plants, cv. Caldwell, are grown in 5.7 cm^2 pots, three per pot, and maintained in a growth chamber set at 20° C., 80% RH with a 12 hour photoperiod.
B) Compound Preparation--A 1.0% stock solution of each of the compounds of the present invention is first prepared utilizing an appropriate solvent such as acetone, water or DMSO. This stock is then used to prepare the final spray solution which contains the compound at the desired dosage, eg 100 ppm and 20 ppm, acetone at 20% v/v, Tween®20 at .05% w/v, and water at about 80%. Commercial standard used is tebuconazole at equivalent rates.
C) Compound Application, Seedlings are sprayed at the two-leaf stage (GS 12) using a DeVilbiss Model 152 hand operated sprayer set at 15-20 psi. Six ml of the test solution per treatment are applied to three pots. In the protectant assay (EXAMPLE 8), the compound application is made two days pre-inoculation. In the curative assay (EXAMPLE 9), the compound is applied during a brief interruption of the disease incubation period two days post-inoculation. […]
E) Test Evaluation--Eight to ten days after removal from the high humidity chamber, or twelve to fourteen days after inoculation, treatments are evaluated by visually estimating the percentage of the leaf area (on the first leaf) covered with lesions. […] Percent disease, as well as percent control values are calculated. […]

[4] = test system: Venturia inaequalis; assay: Apple Scab Foliar Assay (ASC Cur); assay type: in vivo; details: 20 ppm, sprayed 72 hours after inoculation, apple seedlings
Description: Apple Scab Foliar Assay Methods (ASC Cur)--This assay is that of Example 1 except for the sequence of the chemical application and pathogen inoculation events. One month old apple seedlings are inoculated as described. 72 hours later, the plants are removed from the mist chamber and sprayed with the test chemicals and then returned to the mist-chamber after 1 to 2 hours. Disease evaluation is made on day 8-12.

Compound | ASC In vitro (A.I.) Activity Index ([1]; 0.1 ppm in water agar) | ASC In vitro (A.I.) Activity Index ([1]; 1.0 ppm in water agar) | WPM Cur percent disease control [2] | WGB Cur percent control ([3]; 20 ppm) | WGB Cur percent control ([3]; 100 ppm) | ASC Cur percentage control [4]
C[C@@H]1CCC[C@H](c2ccccc2NC(=O)c2cn(C)nc2C(F)F)C1 (relative stereo) [Number 2, 1H-pyrazole-4-carboxamide, 3-(difluoromethyl)-1-methyl-N-[2-(-3-methylcyclohexyl)phenyl]-, cis-] | 3 | 3 |  |  |  | 
C[C@H]1CCC[C@H](c2ccccc2NC(=O)c2cn(C)nc2C(F)F)C1 (relative stereo) [Number 3, 1H-pyrazole-4-carboxamide, 3-(difluoromethyl)-1-methyl-N-[2-(3-methylcyclohexyl)phenyl]-, trans-] | 3 | 3 | 89% | 62% | 67% | 69%
